Measurements reported in ChEMBL document CHEMBL6177951, “Synthesis and anti-MRSA activity of quaternized small molecule antimicrobial peptide mimics based on norharmane” (Eur J Med Chem, 2025).
Calls of active or inactive are those of the source. The rule behind the calls is not given here.

What was measured:
Calf thymus DNA [1] = experiment: Binding affinity to calf thymus DNA assessed as change in Gibbs free energy at 3 uM by ITC assay; assay type: nucleic-acid assay; conditions: Bos taurus
Staphylococcus aureus [2] = experiment: Antibacterial activity against Staphylococcus aureus ATCC 33591 assessed as log reduction in bacterial growth at 2 times MIC measured at 6 hrs by time-kill kinetic assay; assay type: functional
Staphylococcus aureus [3] = experiment: In vivo antibacterial activity against methicillin-resistant Staphylococcus aureus infected in female Kunming mouse skin infection model assessed as log reduction in bacterial load at 5 mg/kg measured after 48 hrs (reference value: 14.34 log10CFU/g); assay type: functional
Staphylococcus aureus [4] = experiment: Antibacterial activity against methicillin-resistant Staphylococcus aureus assessed as increase MIC incubated for 6 hrs in presence of 70 to 100% sheep plasma; assay type: functional
Staphylococcus aureus [5] = experiment: In vivo antibacterial activity against methicillin-resistant Staphylococcus aureus infected in female Kunming mouse skin infection model assessed as reduction in bacterial load measured after 48 hrs; assay type: functional, organism-based; conditions: dose 5-20 mg/kg
Staphylococcus aureus [6] = experiment: Antibacterial activity against Staphylococcus aureus ATCC 33591 assessed as resistance development by measuring fold increase in MIC at 0.5 times MIC incubated for 8 hrs and measured after 15 passages; assay type: functional
Staphylococcus aureus [7] = experiment: Antibiofilm activity against methicillin-resistant Staphylococcus aureus assessed as disruption of preformed biofilm at 0.25 to 16 ug/ml incubated for 24 hrs by crystal violet staining based analysis; assay type: functional, organism-based; conditions: dose 0.25-16 µg/ml
L02 [8] = experiment: Cytotoxicity against human L02 cells assessed as reduction in cell viability at 4 ug/ml incubated for 24 hrs by CCK-8 assay relative to control; assay type: toxicity, cell-based; conditions: l02, 24 h, at 4 µg/mL
Calf thymus DNA [9] = experiment: Binding affinity to calf thymus DNA assessed as dissociation constant by ITC assay; assay type: nucleic-acid assay, Bos taurus
[10] = Toxicity in female Kunming mouse assessed as pathological changes in skin tissue at 5 to 20 mg/kg, sc measured after 48 hrs by H and E staining based analysis; assay type: organism-based; conditions: in vivo, dose 5-20 mg/kg
[11] = Hemolytic activity in sheep RBC assessed as hemolysis at 256 times MIC incubated for 1 hrs relative to control; assay type: toxicity, cell-based, Ovis aries, Erythrocyte; conditions: sheep red blood cells, read-out: Activity
Staphylococcus aureus [12] = experiment: Antibacterial activity against methicillin-resistant Staphylococcus aureus assessed as change in cell surface zeta potential at 256 ug/ml incubated for 8 hrs; assay type: functional, organism-based; conditions: dose 256.0 µg/ml
Staphylococcus aureus [13] = experiment: In vivo antibacterial activity against methicillin-resistant Staphylococcus aureus infected in female Kunming mouse skin infection model assessed as log reduction in bacterial load at 20 mg/kg measured after 48 hrs (reference value: 14.34 log10CFU/g); assay type: functional
Staphylococcus aureus [14] = experiment: Induction of morphological changes in methicillin-resistant Staphylococcus aureus assessed as appearance of broken cells at 0.5 ug/ml incubated for 6 hrs by SEM analysis; assay type: functional, organism-based; conditions: dose 0.5 µg/ml
[15] = Acute toxicity in female Kunming mouse assessed as aberrant behavior at 500 to 2000 mg/kg, sc measured after 7 days; assay type: organism-based; conditions: in vivo, 168 h, dose 500-2000 mg/kg, time 7 day
Cell membrane [16] = experiment: Induction of cell membrane integrity in methicillin-resistant Staphylococcus aureus assessed as appearance of blue and red fluorescence at 0.25 ug/ml incubated for 8 hrs by DAPI/PI staining based fluorescence microscopic analysis; assay type: subcellular; conditions: dose 0.25 µg/ml
Staphylococcus aureus [17] = experiment: Induction of morphological changes in methicillin-resistant Staphylococcus aureus assessed as appearance of holes in cells at 0.5 ug/ml incubated for 6 hrs by SEM analysis; assay type: functional, organism-based; conditions: dose 0.5 µg/ml
Staphylococcus aureus [18] = experiment: Antibacterial activity against methicillin-resistant Staphylococcus aureus clinical isolate M-13 incubated for 14 hrs by two-fold serial dilution method; assay type: functional
[19] = Toxicity in female Kunming mouse assessed as inflammatory response in liver at 500 to 2000 mg/kg, sc measured after 7 days by H and E staining based analysis; assay type: organism-based; conditions: in vivo, 168 h, dose 500-2000 mg/kg, time 7 day
Staphylococcus aureus [20] = experiment: Antibacterial activity against Staphylococcus aureus ATCC 33591 assessed as inhibition of bacterial growth at 1 to 2 times MIC measured after 24 hrs by growth kinetic assay; assay type: functional, organism-based
Staphylococcus aureus [21] = experiment: Antibacterial activity against Staphylococcus aureus ATCC 29213 assessed as inhibition of bacterial growth incubated for 14 hrs by two-fold serial dilution method; assay type: functional
Staphylococcus aureus [22] = experiment: Antibacterial activity against methicillin-resistant Staphylococcus aureus clinical isolate M-17 incubated for 14 hrs by two-fold serial dilution method; assay type: functional
Staphylococcus aureus [23] = experiment: In vivo antibacterial activity against methicillin-resistant Staphylococcus aureus infected in female Kunming mouse skin infection model assessed as appearance of smooth inside skin at 20 mg/kg measured after 48 hrs; assay type: functional, organism-based
Staphylococcus aureus [24] = experiment: Antibacterial activity against methicillin-resistant Staphylococcus aureus clinical isolate M-16 incubated for 14 hrs by two-fold serial dilution method; assay type: functional
[25] = Acute toxicity in female Kunming mouse assessed as aberrant appearance at 500 to 2000 mg/kg, sc measured after 7 days; assay type: organism-based; conditions: in vivo, 168 h, dose 500-2000 mg/kg, time 7 day
Staphylococcus aureus [26] = experiment: Antibacterial activity against methicillin-resistant Staphylococcus aureus assessed as reduction in LDH activity incubated for 8 hrs; assay type: functional, organism-based; conditions: dose 0.25-2 µg/ml
Staphylococcus aureus [27] = experiment: Antibacterial activity against methicillin-resistant Staphylococcus aureus ATCC 33591 assessed as inhibition of bacterial growth incubated for 14 hrs by two-fold serial dilution method; assay type: functional
Staphylococcus aureus [28] = experiment: Antibacterial activity against methicillin-resistant Staphylococcus aureus clinical isolate M-21 incubated for 14 hrs by two-fold serial dilution method; assay type: functional
Calf thymus DNA [29] = experiment: Binding affinity to calf thymus DNA assessed as binding constant by ITC assay; assay type: nucleic-acid assay; conditions: Bos taurus
Staphylococcus aureus [30] = experiment: Antibacterial activity against methicillin-resistant Staphylococcus aureus assessed as reduction in metabolic activity at 2 ug/ml incubated for 8 hrs by alamar blue staining based analysis relative to control; assay type: functional; set-up: scale not given: the % may be the effect or the level left; conditions: dose 2 µg/ml
Staphylococcus aureus [31] = experiment: Induction of ROS generation in methicillin-resistant Staphylococcus aureus assessed as fold increase in fluorescence intensity at 2 ug/ml incubated for 8 hrs by DCFH-DA dye analysis; assay type: functional; conditions: dose 2 µg/ml
Staphylococcus aureus [32] = experiment: Antibacterial activity against Staphylococcus aureus CMCC 26003 assessed as inhibition of bacterial growth incubated for 14 hrs by two-fold serial dilution method; assay type: functional
L02 [33] = experiment: Cytotoxicity against human L02 cells assessed as reduction in cell viability at 0.25 ug/ml incubated for 24 hrs by CCK-8 assay relative to control; assay type: toxicity, cell-based; conditions: l02, 24 h, at 0.25 µg/mL
[34] = Acute toxicity in female Kunming mouse assessed as mortality at 500 to 2000 mg/kg, sc measured after 7 days; assay type: organism-based; conditions: in vivo, 168 h, dose 500-2000 mg/kg, time 7 day
[35] = Toxicity in female Kunming mouse assessed as inflammatory cell infiltration at 5 to 20 mg/kg, sc measured after 48 hrs by H and E staining based analysis; assay type: organism-based; conditions: in vivo, dose 5-20 mg/kg
Staphylococcus aureus [36] = experiment: Antibacterial activity against methicillin-resistant Staphylococcus aureus incubated for 6 hrs in presence of 10 to 60% sheep plasma; assay type: functional, organism-based
Cell membrane [37] = experiment: Induction of cell membrane permeability in methicillin-resistant Staphylococcus aureus assessed as increase in nucleic acid leakage at 2 ug/ml incubated for 8 hrs; assay type: subcellular; conditions: dose 2.0 µg/ml
Staphylococcus aureus [38] = experiment: Antibacterial activity against methicillin-resistant Staphylococcus aureus clinical isolate M-22 incubated for 14 hrs by two-fold serial dilution method; assay type: functional
[39] = Toxicity in female Kunming mouse assessed as pathological changes in liver at 500 to 2000 mg/kg, sc measured after 7 days by H and E staining based analysis; assay type: organism-based; conditions: in vivo, 168 h, dose 500-2000 mg/kg, time 7 day
Staphylococcus aureus [40] = experiment: Antibacterial activity against methicillin-resistant Staphylococcus aureus clinical isolate M-15 incubated for 14 hrs by two-fold serial dilution method; assay type: functional

C[n+]1ccc2c3ccccc3n(CCCCCCCCCCCn3c4ccccc4c4cc[n+](C)cc43)c2c1.[I-].[I-]
deltaG (Calf thymus DNA [1]): -7.29 kcal/mol
Activity (Staphylococcus aureus [2]): 4.26 log10CFU/ml
Activity (Staphylococcus aureus [3]): 4.85 log10CFU/g
MIC (Staphylococcus aureus [4]): 0.5 µg/mL
Activity (Staphylococcus aureus [5]): Dose-dependent-effect
fold change (FC) (Staphylococcus aureus [6]): 2
Activity (Staphylococcus aureus [7]): inactive
Activity (L02 [8]): 71.86%
Kd (Calf thymus DNA [9]): 4.52 µM
Activity [10]: Non-toxic
hemolysis at 1 h, 256 times MIC [11]: < 10%
Activity (Staphylococcus aureus [12]): Active
Activity (Staphylococcus aureus [13]): 7.29 log10CFU/g
Activity (Staphylococcus aureus [14]): Active
Activity [15]: Non-toxic
Activity (Cell membrane [16]): Active
Activity (Staphylococcus aureus [17]): Active
MIC (Staphylococcus aureus [18]): 1 µg/mL
Activity [19]: Non-toxic
Activity (Staphylococcus aureus [20]): Active
MIC (Staphylococcus aureus [21]): 1 µg/mL
MIC (Staphylococcus aureus [22]): 0.5 µg/mL
Activity (Staphylococcus aureus [23]): Active
MIC (Staphylococcus aureus [24]): 0.5 µg/mL
Activity [25]: Non-toxic
Activity (Staphylococcus aureus [26]): Dose-dependent-effect
MIC (Staphylococcus aureus [27]): 0.25 µg/mL
MIC (Staphylococcus aureus [28]): 1 µg/mL
K (Calf thymus DNA [29]): 2.21 10^5/M
Activity (Staphylococcus aureus [30]): 64.56%
fold change (FC) (Staphylococcus aureus [31]): 4.34
MIC (Staphylococcus aureus [32]): 0.25 µg/mL
Activity (L02 [33]): 97.25%
Activity [34]: Non-toxic
Activity [35]: Non-toxic
Activity (Staphylococcus aureus [36]): Active
Activity (Cell membrane [37]): Active
MIC (Staphylococcus aureus [38]): 0.5 µg/mL
Activity [39]: Non-toxic
MIC (Staphylococcus aureus [40]): 0.5 µg/mL
